Reference: patent US8618159B2, “Substituted N-phenyl-bipyrrolidine carboxamides and therapeutic use thereof” (Sanofi, priority 2007, dated 2013)
Counter-ions that a name gives are not always drawn. Like-named read-outs stand apart in the source and are kept apart here.

Experiments:
[1] = molecular target: T1, rhesus (Macacca Mulatta) H3 receptor (Macaca mulatta, UniProt Q865E1); test: Rhesus H3 radioligand binding assay ([3H]-Methylhistamine displacement, WGA SPA beads); parameters: species or system rhesus monkey (Macacca Mulatta); details: read-out: Affinity: ki in Rhesus H3 membrane
T1 construct: pcDNA5/FRT/TO (Invitrogen) containing the rhesus monkey (Macacca Mulatta) 445 amino acid H3 receptor
T1 sequence (Q865E1 1-445): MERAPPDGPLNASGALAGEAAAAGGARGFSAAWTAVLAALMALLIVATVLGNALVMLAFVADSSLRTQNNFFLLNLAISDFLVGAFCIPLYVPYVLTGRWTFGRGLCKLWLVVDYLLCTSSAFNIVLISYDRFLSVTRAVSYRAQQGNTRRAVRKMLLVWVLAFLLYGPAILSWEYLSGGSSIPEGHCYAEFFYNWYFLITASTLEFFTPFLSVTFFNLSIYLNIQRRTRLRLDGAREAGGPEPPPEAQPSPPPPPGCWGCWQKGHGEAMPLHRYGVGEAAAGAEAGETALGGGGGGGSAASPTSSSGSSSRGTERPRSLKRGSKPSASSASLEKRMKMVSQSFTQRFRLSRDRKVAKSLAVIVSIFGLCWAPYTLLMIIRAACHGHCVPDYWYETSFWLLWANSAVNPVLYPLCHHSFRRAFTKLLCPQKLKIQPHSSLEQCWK
Method: (§1) (Genbank #AY231164). Stably transfected cultures were amplified in tissue culture flasks by standard tissue culture methods and induced to express rhesus H3 by exposure to 500 ng/ml tetracycline (Cellgro) for 24 hours. After induction, cells were dissociated from flasks utilizing Cell Stripper (Cellgro). Cells were centrifuged (1K×g, 5 min) and pellet frozen in an ethanol-dry ice bath to disrupt cell membranes. Frozen cell pellet was re-suspended in 5 mM HEPES (pH 7.4, Invitrogen) at 10 ml/1000 cm2 of harvested cells. The cell suspension was drawn through an 18 gauge needle (2-3×) followed by a 23 gauge needle (2-3×) to further disrupt cell membranes. The cell suspension was centrifuged (40K×g, 30 min). Cell membrane pellet was re-suspended in 5 mM HEPES (pH 7.4, Invitrogen) at a final protein concentration of 10 mg/ml. Rhesus H3 membranes were stored under liquid nitrogen prior to use in [3H]-Methylhistamine and GTPγS radioligand binding assays.
Rhesus H3 radioligand binding assay was performed using rhesus H3 receptor membranes (prepared as described above), [3H]-Methylhistamine (Perkin Elmer) and WGA SPA beads (wheat germ agglutinin scintillation proximity assay) beads (Amersham). The assay was performed in 96-well Opti-Plates (Packard). Each reaction contained 50 μl rhesus H3 membranes (20-30 μg total protein), 50 μl WGA SPA beads (0.1 μg) and 50 μl of 83 Ci/mmol [^3H]-Methylhistamine (final concentration 2 nM) and 50 μl of tested compound. The compounds of this invention and/or vehicle were diluted with binding buffer from 10 mM DMSO stocks. Assay plates were sealed with TopSeal (Perkin Elmer) and mixed on shaker (25° C., 1 hour). Assay plates were read on TopCount scintillation counter (Packard). Results were analyzed by Hill transformation and Ki values were determined by Cheng-Prusoff equation.

rhesus H3 = test: GTPγS radioligand binding assay, inhibition of rhesus H3 constitutive functional activity in cell membranes; assay type: biochemical, rhesus monkey (Macacca Mulatta); details: Table 1; relative to basal level
Method: as §1, with “Rhesus H3 membranes were prepared from the Flp-In T-REx 293 Cell Line (Invitrogen) stably transfected with pcDNA5/FRT/TO (Invitrogen) containing the rhesus monkey (Macacca Mulatta) 445 amino acid H3 receptor. (Genbank” for “(Genbank”

[2] = Table 2, stereoisomer comparison, procedure of Example 148
[3] = Table 1, [3H]-Methylhistamine 2 nM, Cheng-Prusoff

Row | Compound | Ki [1, 2] [nM] | Ki [1, 3] [nM] | Inverse Agonism: % inhibition of Basal GTPγS binding in Rhesus H3 (rhesus H3) [%]
1 | Cc1cc(N2CC[C@@H](N3CCC[C@@H]3C)C2)ccc1NC(=O)c1cc(F)ccc1C [Example 3, 5-Fluoro-2-methyl-N-[2-methyl-4-(2(2S)-methyl-[1,3′(3′R)]bipyrrolidinyl-1′-yl)-phenyl]-benzamide] | 7.3 |  | 
2 | Cc1cc(N2CC[C@H](N3CCC[C@H]3C)C2)ccc1NC(=O)c1cc(F)ccc1C [Example 5, 5-Fluoro-2-methyl-N-[2-methyl-4-(2(2R)-methyl-[1,3′(3′S)]bipyrrolidinyl-1′-yl)-phenyl]-benzamide] | 121 |  | 
3 | Cc1cc(N2CCC(N3CCCC3C)C2)ccc1NC(=O)c1ccc(F)cc1 (stereo not drawn) [Example 7, 4-Fluoro-N-[2-methyl-4-(2-methyl-[1,3′]bipyrrolidinyl-1′-yl)-phenyl]-benzamide] |  | 2.06 | −31

Now from value to compound, other results behind:

Row | Ki [1, 2] [nM] | Ki [1, 3] [nM] | Compound | Inverse Agonism: % inhibition of Basal GTPγS binding in Rhesus H3 (rhesus H3) [%]
4 | 2.5 |  | Cc1cc(N2CC[C@@H](N3CCC[C@@H]3C)C2)ccc1NC(=O)c1cc(F)ccc1C [Example 11, 5-Fluoro-2-methyl-N-[2-methyl-4-(2-(2S)-methyl-[1,3′(3′S)]bipyrrolidinyl-1′-yl)-phenyl]-benzamide] | 
5 | 147 |  | Cc1cc(N2CC[C@@H](N3CCC[C@H]3C)C2)ccc1NC(=O)c1cc(F)ccc1C [Example 12, 5-Fluoro-2-methyl-N-[2-methyl-4-(2-(R)-methyl-[1,3′(R)]bipyrrolidinyl-1′-yl)-phenyl]-benzamide hydrochloride] | 
6 |  | 0.77 | Cc1cc(N2CC[C@H](N3CCC[C@@H]3C)C2)ccc1NC(=O)c1ccc2[nH]ccc2c1 [Example 52, 1H-Indole-5-carboxylic acid [2-methyl-4-(2(S)-methyl-[1,3′(5)]-bipyrrolidinyl-1′-yl)-phenyl]-amide trifluoroacetate] | −17
7 |  | 0.78 | Cc1cc(N2CC[C@H](N3CCC[C@@H]3C)C2)ccc1NC(=O)c1ccc2ccoc2c1 [Example 73, Benzofuran-6-carboxylic acid [2-methyl-4-(2(S)-methyl-[1,3′(S)]bipyrrolidinyl-1′-yl)-phenyl]-amide trifluoroacetate] | −15
8 |  | 1.42 | Cc1cccc(C(=O)Nc2ccc(N3CC[C@H](N4CCC[C@@H]4C)C3)cc2C)n1 [Example 86, 6-Methyl-pyridine-2-carboxylic acid [2-methyl-4-(2(S)-methyl-[1,3′(S)]bipyrrolidinyl-1′-yl)-phenyl]-amide trifluoroacetate] | −18
